Assay results as given in patent US5185366A, “Method for treatment and prevention of diseases caused by enveloped viruses, including herpes simplex virus types 1 and 2 diseases, using 3,4-dihydroxy-2H-benzopyran-2H-one” (Ohio State University Research Foundation, priority 1990, dated 1993).
Like-named read-outs stand apart in the source and are kept apart here.

What was measured:
VSV [1] = test: microbe, parasite or virus in culture; format: cell-based, Vesicular stomatitis virus; settings: Vesicular stomatitis virus, read-out: % Inhibition of Plaque Forming Units, Intracellularly
VSV [2] = test: microbe, parasite or virus in culture; format: cell-based, Vesicular stomatitis virus
HSV-2 [3] = test: HSV-2 plaque size, intracellular treatment; format: cell-based, Herpes simplex virus type 2
Experimental: For antiviral studies the diameter of plaques is determined with the aid of a calibrated micrometer slide and a microscope eye piece having scaled markings. A simple random sample is taken and all plaque diameters are measured for both experimental and control groups. Plaque diameter also serves as an indication of inhibition of viral replication. […] Monolayers are then infected, washed with EBSS and | maintenance medium with or without compound added. Cells are stained afte | 48 hours with crystal violet and the plaque diameters are determined with | the aid of a micrometer.

HSV-2 [4] = test: HSV-2 plaque size, extracellular treatment; format: cell-based, Herpes simplex virus type 2; settings: for Mean plaque diameter (±SD), Treated: extracellularly; for reduction in plaque size: virus treated extracellularly
HSV = test: Selectivity among the viruses tested; format: cell-based, Herpes simplex virus
HSV-2 [5] = test: Extracellular activity, inhibition of plaque forming units, HSV-2; settings: for extracellular antiviral activity: HSV-2, 10 μM; for Plaque Forming Units Mean ± SD: extracellular
HSV-1 = test: Extracellular activity, inhibition of plaque forming units, HSV-1; settings: for extracellular antiviral activity: HSV-1, 10 μM; for Plaque Forming Units Mean ± SD: extracellular
[6] = listed as 3,4-dihydroxy-2H-1-benzopyran-2-one

SMILES: O=c1oc2ccccc2c(O)c1O [Compound 5, 3,4-dihydroxy-2H-1-benzopyran-2-one]
- inhibition at 10 µM (VSV [1]): 0%
- extracellular antiviral activity (VSV [2]; VSV, n=2): no antiviral activity
- inhibition at 10 µM (VSV [2]; Vesicular stomatitis virus, read-out: % Inhibition of Plaque Forming Units, Extracellularly): 0%
- inhibition at 10 µM (HSV-2 [3]; Human alphaherpesvirus 2, 48 h, viral-infected cells, 10 μM, read-out: reduction in plaque size): 56%
- inhibition at 10 µM (HSV-2 [3]; Human alphaherpesvirus 2, intracellularly, 10 μM, relative viral conc 10, read-out: % Inhib (mean plaque diameter)): 56%
- inhibition at 20 µM (HSV-2 [3]; Human alphaherpesvirus 2, intracellularly, 20 μM, relative viral conc 10, read-out: % Inhib (mean plaque diameter)): 60%
- Mean plaque diameter (±SD), Treated (HSV-2 [3]; intracellularly, 10 μM, relative viral conc 1): 213 ± 79 micrometers
- Mean plaque diameter (±SD), Treated (HSV-2 [3]; intracellularly, 10 μM, relative viral conc 10): 221 ± 89 micrometers
- Mean plaque diameter (±SD), Treated (HSV-2 [3]; intracellularly, 20 μM, relative viral conc 1): 205 ± 90 micrometers
- Mean plaque diameter (±SD), Treated (HSV-2 [3]; intracellularly, 20 μM, relative viral conc 10): 202 ± 88 micrometers
- inhibition at 10 µM (HSV-2 [4]; Human alphaherpesvirus 2, extracellularly, 10 μM, relative viral conc 1, read-out: % Inhib (mean plaque diameter)): 6%
- inhibition at 10 µM (HSV-2 [4]; Human alphaherpesvirus 2, extracellularly, 10 μM, relative viral conc 10, read-out: % Inhib (mean plaque diameter)): 1%
- inhibition at 20 µM (HSV-2 [4]; Human alphaherpesvirus 2, extracellularly, 20 μM, relative viral conc 10, read-out: % Inhib (mean plaque diameter)): 1%
- Mean plaque diameter (±SD), Treated (HSV-2 [4]; 10 μM, relative viral conc 1): 449 ± 70 micrometers
- Mean plaque diameter (±SD), Treated (HSV-2 [4]; 10 μM, relative viral conc 10): 500 ± 100 micrometers
- Mean plaque diameter (±SD), Treated (HSV-2 [4]; 20 μM, relative viral conc 10): 486 ± 80 micrometers
- reduction in plaque size (HSV-2 [4]; 10 μM): no significant reduction
- reduction in plaque size (HSV-2 [4]; 10 μM, listed as 3,4-dihydroxy-2H-1-benzopyran-2-one): no reduction in plaque size
- selectivity for HSV among the viruses tested (HSV): selective for HSV among the viruses tested
- extracellular antiviral activity (HSV-2 [5]): shows both intra- and extra- cellular antiviral activity
- extracellular antiviral activity (HSV-2 [5]; [6]): exhibits both intracellular and extracellular activity
- inhibition at 10 µM (HSV-2 [5]; Human alphaherpesvirus 2, extracellular, HSV-2 + 1 × Cmpd (10 μM), relative viral conc 10): 64%
- inhibition at 10 µM (HSV-2 [5]; Human alphaherpesvirus 2, extracellular, HSV-2 + 1 × Cmpd (10 μM), relative viral conc 100): 77%
- inhibition at 20 µM (HSV-2 [5]; Human alphaherpesvirus 2, extracellular, HSV-2 + 2 × Cmpd (20 μM), relative viral conc 10): 96%
- inhibition at 20 µM (HSV-2 [5]; Human alphaherpesvirus 2, extracellular, HSV-2 + 2 × Cmpd (20 μM), relative viral conc 100): 95%
- inhibition at 10 µM (HSV-2 [5]; Human alphaherpesvirus 2, read-out: % Inhibition of PFU, EA (extracellular activity), HSV-2, 10.0 μmol/L): 81%
- inhibition at 10 µM (HSV-2 [5]; Human alphaherpesvirus 2, read-out: % Inhibition of Plaque Forming Units, Extracellularly, HSV-2, 10 μM (Table IV)): 81 ± 4%
- inhibition at 10 µM (HSV-2 [5]; Human alphaherpesvirus 2, read-out: reduction (PFU), extracellularly, HSV-2, 10 μM level, P<0.01): 76 to 98%
- inhibition, extracellular treatment of HSV-2 (HSV-2 [5]; comparison with clofibric acid, P<0.01): 63+/-4%
- Plaque Forming Units Mean ± SD (HSV-2 [5]; HSV-2 + 1 × Cmpd (10 μM), relative viral conc 10): 5.3 ± 1.5
- Plaque Forming Units Mean ± SD (HSV-2 [5]; HSV-2 + 1 × Cmpd (10 μM), relative viral conc 100): 49.3 ± 4.5
- Plaque Forming Units Mean ± SD (HSV-2 [5]; HSV-2 + 2 × Cmpd (20 μM), relative viral conc 10): 0.6 ± 0.6
- Plaque Forming Units Mean ± SD (HSV-2 [5]; HSV-2 + 2 × Cmpd (20 μM), relative viral conc 100): 9.7 ± 1.5
- extracellular antiviral activity (HSV-1): shows both intra- and extra- cellular antiviral activity
- extracellular antiviral activity (HSV-1; [6]): exhibits both intracellular and extracellular activity
- inhibition at 10 µM (HSV-1; Human alphaherpesvirus 1, extracellular, HSV-1 + 1 × Cmpd (10 μM), relative viral conc 10): 82%
- inhibition at 10 µM (HSV-1; Human alphaherpesvirus 1, extracellular, HSV-1 + 1 × Cmpd (10 μM), relative viral conc 100): 76%
- inhibition at 20 µM (HSV-1; Human alphaherpesvirus 1, extracellular, HSV-1 + 2 × Cmpd (20 μM), relative viral conc 10): 98%
- inhibition at 20 µM (HSV-1; Human alphaherpesvirus 1, extracellular, HSV-1 + 2 × Cmpd (20 μM), relative viral conc 100): 95%
- inhibition at 10 µM (HSV-1; Human alphaherpesvirus 1, read-out: % Inhibition of Plaque Forming Units, Extracellularly, HSV-1, 10 μM): 76.4 ± 2.2%
- inhibition at 10 µM (HSV-1; Human alphaherpesvirus 1, read-out: reduction (PFU), extracellularly, HSV-1, 10 μM level, P<0.01): 76 to 98%
- Plaque Forming Units Mean ± SD (HSV-1; HSV-1 + 1 × Cmpd (10 μM), relative viral conc 10): 2.6 ± 1.6
- Plaque Forming Units Mean ± SD (HSV-1; HSV-1 + 1 × Cmpd (10 μM), relative viral conc 100): 40.6 ± 3.8
- Plaque Forming Units Mean ± SD (HSV-1; HSV-1 + 2 × Cmpd (20 μM), relative viral conc 10): 0.3 ± 0.5
- Plaque Forming Units Mean ± SD (HSV-1; HSV-1 + 2 × Cmpd (20 μM), relative viral conc 100): 9.3 ± 1.5
